Experimental data: patent US8802104B2, “Parathyroid hormone receptor activation and stem and progenitor cell expansion” (The General Hospital Corporation, priority 2002, dated 2014)

Assays:
[1] = tested on: C-1498/GFP cells; assay: Recombinant OPN on C-1498/GFP leukemia cell growth in vitro; format: cell-based, mouse
Procedure: (§1) To investigate the role of OPN as a candidate molecule, it was explored whether recombinant OPN is sufficient to reproduce the growth inhibition of leukemia cells in vitro. To this end, C-1498/GFP cells were cultured in wells with either (a) no OPN, (b) with 5 and 10 ug/ml of OPN. […] It was therefore concluded that recombinant osteopontin is sufficient to limit leukemic cell expansion. […] Given that PTH increases osteoblast production of OPN, it is likely that OPN participates in the preferential support of normal over leukemic cells in vivo with PTH stimulation of the stem cell niche.

[2] = tested on: C-1498/GFP cells; assay: Annexin staining of leukemia cells cultured with OPN; format: cell-based, mouse; details: FIG. 13a
Procedure: as §1

[3] = tested on: PTH-stimulated adenylate cyclase; details: cited from earlier work
[4] = target: T1, renal PTH receptors (Homo sapiens, UniProt Q03431); details: cited from earlier work
T1 sequence (Q03431 27-593): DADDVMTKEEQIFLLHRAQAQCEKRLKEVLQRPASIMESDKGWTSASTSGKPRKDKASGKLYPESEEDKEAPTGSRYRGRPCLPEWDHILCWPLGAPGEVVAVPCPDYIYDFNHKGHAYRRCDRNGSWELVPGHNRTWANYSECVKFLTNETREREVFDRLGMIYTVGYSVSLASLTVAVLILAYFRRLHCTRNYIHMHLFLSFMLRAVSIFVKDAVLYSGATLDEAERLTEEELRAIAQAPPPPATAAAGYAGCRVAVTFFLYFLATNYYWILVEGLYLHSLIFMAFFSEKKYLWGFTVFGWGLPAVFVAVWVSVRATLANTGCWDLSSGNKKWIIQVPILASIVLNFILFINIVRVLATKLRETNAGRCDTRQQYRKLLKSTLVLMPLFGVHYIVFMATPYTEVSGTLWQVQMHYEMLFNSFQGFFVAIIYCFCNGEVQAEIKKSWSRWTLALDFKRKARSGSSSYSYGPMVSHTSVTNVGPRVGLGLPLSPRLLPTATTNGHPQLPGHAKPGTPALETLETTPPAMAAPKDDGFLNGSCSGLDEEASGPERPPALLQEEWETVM

[5] = tested on: HSC pool in the bone marrow; assay: HSC pool in bone marrow following chemotherapy (competitive transplant); format: in vivo, C57Bl/6 mice; details: G-CSF alone
Procedure: (§2) Wild-type C57Bl/6 mice were treated with 5 mg of cyclophosphamide (Day 1). The day following injection of cyclophosphamide, mice received no treatment or were treated for 8 days with G-CSF (5 μg/day), 11 days with PTH (80 μg/kg/day) or a combination of G-CSF plus PTH. Mice that received a combination of both G-CSF and PTH received G-CSF treatment for 8 days and PTH treatment for 11 days. Following this treatment protocol, mice were injected with cyclophosphamide on Day 15 and treated with G-CSF, PTH or G-CSF and PTH as described above. The treatment protocol was then repeated for two subsequent cycles, as outlined in FIG. 7.
(§3) At the end of the four-cycle treatment with cyclophosphamide and G-CSF/PTH, the bone marrow was removed from the treated mice and competitive transplants into B6.SJL mice were performed to measure the maintenance of the HSC pool in the bone marrow. This involved mixing 5×10^5 BM cells from the treated C57Bl/6 mice (CD45.2) with 2.5×10^5 BM cells from the B6.SJL mice (CD45.1). These cells were then injected into lethally irradiated B6.SJL mice. Eighteen weeks following injection of the cells, peripheral blood was collected from the mice and the relative contribution of the HSCs from the treated animals was measured by flow cytometry for the CD45.2^+ cells. To assess the ability of the HSCs to be mobilized into the peripheral circulation, one week following treatment mice were mobilized with G-CSF (5 μg/day) for 5 days. Peripheral blood (300 μl) was collected from these mice and mixed with 2.5×10^5 BM cells from a B6.SJL mouse. These cells were injected into a lethally irradiated B6.SJL host. Eighteen weeks following injection of the cells, peripheral blood was collected from the mice and the relative contribution of the HSCs from the treated animals was measured by flow cytometry for the CD45.2^+ cells.

[6] = tested on: peripheral blood cells; assay: Complete blood count during cyclophosphamide chemotherapy cycles; format: in vivo, C57Bl/6 mice; details: cyclophosphamide 5 mg per cycle, G-CSF 5 μg/day 8 days
Procedure: as §2
During the course of the four treatment cycles, peripheral blood complete blood count (CBC) analysis was performed every 2 to 3 days. This analysis involved the collection of 100 μl of peripheral blood from the tail vein of the mice, which was subsequently analyzed on a HEMAVET 850FS (Drew Scientific). To avoid any deleterious effects from repeated tail bleeds, each individual mouse was only bled once per week.

[7] = tested on: HSCs in the peripheral circulation; assay: G-CSF mobilization of HSCs into peripheral circulation after chemotherapy; format: in vivo, C57Bl/6 mice; details: supportive growth factor therapy alone during chemotherapy
Procedure: as §2, §3

Osteopontin [OPN]
inhibition of leukemia cell growth ([1]; 5 and 10 ug/ml OPN, FIG. 13b): sufficient to reproduce the inhibition of leukemia cell growth
relative ability to limit primitive cell expansion ([1]; leukemic vs normal cells): greater in leukemic compared to normal cells
Annexin staining (mode of effect) [2]: growth inhibition rather than accelerated apoptosis

PTH(1-25) (SVSEIQLMHNLGKHLNSMERVEWLR; Parathyroid hormone; UniProt P01270 32-56, looked up, fragment) [carboxyl-terminally truncated PTH fragment]
agonist activity [3]: inactive

PTH(1-34)
agonist activity [3]: full agonist

PTH(25-34) (RKKLQDVHNF; Parathyroid hormone; UniProt P01270 56-65, looked up, fragment)
receptor binding / affinity [4]: weak receptor binding activity

[Tyr^34]bPTH(7-34)NH2
receptor binding / affinity [4]: moderate affinity
agonist activity [3]: does not have any agonist activity

B1: granulocyte colony-stimulating factor (protein, UniProt P09919 31-207, looked up)
Granulocyte …: TPLGPASSLPQSFLLKCLEQVRKIQGDGAALQEKLVSECATYKLCHPEELVLLGHSLGIPWAPLSSCPSQALQLAGCLSQLHSGLFLYQGLLQALEGISPELGPTLDTLQLDVADFATTIWQQMEELGMAPALQPTQGAMPAFASAFQRRAGGVLVASHLQSFLEVSYRVLRHLAQP
notes: growth factor administered to augment recovery from chemotherapy-induced neutropenia
HSC pool in the bone marrow following chemotherapy [5]: significant depletion of the HSC pool
neutrophils count (NE) following chemotherapy [6]: significant increases
white blood count (WBC) following chemotherapy [6]: significant increases
mobilization of HSCs into the peripheral circulation [7]: little to no mobilization
